Source: patent US6620828B2, “Thiazole compounds and pharmaceutical compositions for inhibiting protein kinases and methods for their use” (Agouron Pharmaceuticals, Inc., priority 1999, dated 2003)
Where “and” joins values, the source holds several entries; their conditions need not be identical. Equal values may be shown once. Read-outs that look alike come from different tables or passages of the source.

Experiments:
[1] = biological target: T1, phosphorylated VEGF-R2Δ50 (Homo sapiens, UniProt P35968, DEL940-989/E990V); experiment: VEGF-R2 ELISA assay; type: biochemical; settings: * determined with ELISA assay, read-out: FLVK-P Ki
T1 construct: VEGF-R2Δ50 contains residues 806-939 and 990-1171; made in house; host or cells: baculovirus/insect cells
T1 sequence (P35968 with tags, fused parts or gaps DEL940-989/E990V limits assumed): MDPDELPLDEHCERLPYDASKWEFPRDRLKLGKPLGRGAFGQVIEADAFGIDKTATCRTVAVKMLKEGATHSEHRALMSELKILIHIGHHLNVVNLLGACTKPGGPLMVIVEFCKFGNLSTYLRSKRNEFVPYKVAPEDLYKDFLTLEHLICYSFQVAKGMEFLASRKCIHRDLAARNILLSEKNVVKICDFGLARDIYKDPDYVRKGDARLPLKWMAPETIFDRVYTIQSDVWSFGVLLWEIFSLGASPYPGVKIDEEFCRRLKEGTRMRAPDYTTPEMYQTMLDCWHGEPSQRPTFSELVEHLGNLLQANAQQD
Source text: VEGF-R2 Construct for Assay: This construct determines the ability of a test compound to inhibit tyrosine kinase activity. A construct (VEGF-R2Δ50) of the cytosolic domain of human vascular endothelial growth factor receptor 2 (VEGF-R2) lacking the 50 central residues of the 68 residues of the kinase insert domain was expressed in a baculovirus/insect cell system. Of the 1356 residues of full-length VEGF-R2, VEGF-R2Δ50 contains residues 806-939 and 990-1171, and also one point mutation (E990V) within the kinase insert domain relative to wild-type VEGF-R2. Autophosphorylation of the purified construct was performed by incubation of the enzyme at a concentration of 4 μM in the presence of 3 mM ATP and 40 mM MgCl2 in 100 mM Hepes, pH 7.5, containing 5% glycerol and 5 mM DTT, at 4° C. for 2 h. […] See Parast et al., Biochemistry, 37, 16788-16801 (1998).
Formation of phosphogastrin was monitored using biotinylated gastrin peptide (1-17) as substrate. Biotinylated phosphogastrin was immobilized using streptavidin coated 96-well microtiter plates followed by detection using anti-phosphotyrosine-antibody conjugated to horseradish peroxidase. The activity of horseradish peroxidase was monitored using 2,2′-azino-di-[3-ethylbenzathiazoline sulfonate(6)]diammonium salt (ABTS). Typical assay solutions contained: 2 μM biotinylated gastrin peptide; 5 mM DTT; 20 μM ATP; 26 mM MgCl2; and 2 mM MnCl2 in 200 mM Hepes, pH 7.5. The assay was initiated with 0.8 nM of phosphorylated VEGF-R2Δ50. Horseradish peroxidase activity was assayed using ABTS, 10 mM. The horseradish peroxidase reaction was quenched by addition of acid (H2SO4), followed by absorbance reading at 405 nm. Ki values were determined by measuring enzyme activity in the presence of varying concentrations of test compounds. The data were analyzed using Enzyme Kinetic and Kaleidagraph software.

[2] = biological target: T2, CHK1 (Homo sapiens, UniProt O14757); experiment: CHK1 high-throughput screening; type: biochemical; settings: for % inhibition @ 20 μM: Table 4, repeated entries per example; for inhibition at 20 µM: read-out: % inhibition @ 20 μM, Table 4, repeated entries per example
T2 sequence (O14757 1-476): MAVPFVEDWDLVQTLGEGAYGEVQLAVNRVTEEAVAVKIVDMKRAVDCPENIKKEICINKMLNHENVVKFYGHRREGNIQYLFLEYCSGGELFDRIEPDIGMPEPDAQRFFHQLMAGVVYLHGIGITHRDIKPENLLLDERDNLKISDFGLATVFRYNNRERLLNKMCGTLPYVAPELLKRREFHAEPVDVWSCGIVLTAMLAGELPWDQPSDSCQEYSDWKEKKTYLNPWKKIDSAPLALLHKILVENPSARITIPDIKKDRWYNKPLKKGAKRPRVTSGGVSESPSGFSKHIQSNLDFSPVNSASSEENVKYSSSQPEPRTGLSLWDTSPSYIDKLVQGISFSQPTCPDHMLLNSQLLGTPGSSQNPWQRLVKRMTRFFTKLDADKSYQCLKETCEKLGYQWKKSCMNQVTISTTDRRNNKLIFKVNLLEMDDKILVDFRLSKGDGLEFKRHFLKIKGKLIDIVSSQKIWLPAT

[3] = biological target: T3, CDK4/Cyclin D3 complex (Homo sapiens, UniProt P11802); experiment: CDK4/Cyclin D assay; type: biochemical; settings: Table 2
T3 construct: made in house; host or cells: insect cells co-infected with baculovirus vectors
T3 sequence (P11802 whole entry): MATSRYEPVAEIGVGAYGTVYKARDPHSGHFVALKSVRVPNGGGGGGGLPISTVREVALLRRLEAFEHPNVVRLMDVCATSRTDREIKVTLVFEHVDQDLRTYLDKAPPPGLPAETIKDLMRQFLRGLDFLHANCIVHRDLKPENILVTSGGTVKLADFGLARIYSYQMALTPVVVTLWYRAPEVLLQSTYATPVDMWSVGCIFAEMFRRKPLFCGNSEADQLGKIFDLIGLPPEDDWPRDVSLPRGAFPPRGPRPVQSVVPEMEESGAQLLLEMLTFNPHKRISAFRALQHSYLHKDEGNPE
T3 sequence (P30281 whole entry partner): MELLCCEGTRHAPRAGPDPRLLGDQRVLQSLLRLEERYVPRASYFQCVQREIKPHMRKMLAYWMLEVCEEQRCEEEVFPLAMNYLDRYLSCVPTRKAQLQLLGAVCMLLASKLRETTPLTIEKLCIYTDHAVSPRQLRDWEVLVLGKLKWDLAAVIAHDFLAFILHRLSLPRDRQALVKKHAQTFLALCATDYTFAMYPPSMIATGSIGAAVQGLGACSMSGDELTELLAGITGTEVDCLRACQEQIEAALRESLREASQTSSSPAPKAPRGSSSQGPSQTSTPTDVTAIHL
In short: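 Insect-cell-expressed CDK4/cyclin D3 (50 nM) phosphorylating His-tagged Rb fragment (residues 386-928) with 25 μM [^32P]ATP in HEPES pH 7.4, MgCl2, 2% DMSO; 20 min at 30 °C, EDTA stop. Filter-captured 32P by phosphorimager; apparent Ki from competitive or tight-binding inhibition fits.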

[4] = biological target: CDK2/Cyclin A complex (Homo sapiens, UniProt P24941); experiment: CDK2/Cyclin A assay; type: biochemical; settings: Table 2
In short: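 Radiometric assay: 150 nM CDK2/cyclin A (insect-cell CDK2, truncated cyclin A) phosphorylates His-tagged Rb fragment (residues 386-928) with 25 μM ATP plus [32P]ATP, pH 7.4 HEPES, 2% DMSO, 30 °C for 20 min. Filter-captured product counted by phosphorimager; apparent Ki from competitive or tight-binding inhibition fits.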

[5] = biological target: T4, phosphorylated VEGF-R2Δ50 (FLVK-P) (Homo sapiens, UniProt P35968, DEL940-989/E990V); experiment: VEGF-R2 coupled spectrophotometric (FLVK-P) assay; type: biochemical; settings: Table 2; spectrophotometric assay
T4 construct: VEGF-R2Δ50 contains residues 806-939 and 990-1171; made in house; host or cells: baculovirus/insect cells
T4 sequence (P35968 with tags, fused parts or gaps DEL940-989/E990V limits assumed): as the sequence (P35968 with tags, fused parts or gaps DEL940-989/E990V limits assumed) above
In short: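 Baculovirus-expressed human VEGF-R2Δ50 (residues 806-939/990-1171, E990V) was autophosphorylated with 3 mM ATP, 40 mM MgCl2 for 2 h at 4° C. ADP formation was coupled via PK/LDH to NADH oxidation, read at 340 nm, with 5.1 mM poly(E4Y1), 1 mM ATP, 25 mM MgCl2, Hepes pH 7.5. Ki came from activity across compound concentrations.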

[6] = biological target: T5, FGF-R1 (Homo sapiens, UniProt P11362, C488A/C584S/L457V); experiment: FGF-R spectrophotometric assay; type: biochemical; settings: for inhibition at 1 µM: Table 3, % inh @ 1 uM, read-out: FGF-P Ki (nM) (% inh @ 1 uM)
T5 construct: starting from the endogenous methionine residue 456 to glutamate 766; made in house; host or cells: baculovirus vector expression system
T5 sequence (P11362 456-766 L457V/C488A/C584S): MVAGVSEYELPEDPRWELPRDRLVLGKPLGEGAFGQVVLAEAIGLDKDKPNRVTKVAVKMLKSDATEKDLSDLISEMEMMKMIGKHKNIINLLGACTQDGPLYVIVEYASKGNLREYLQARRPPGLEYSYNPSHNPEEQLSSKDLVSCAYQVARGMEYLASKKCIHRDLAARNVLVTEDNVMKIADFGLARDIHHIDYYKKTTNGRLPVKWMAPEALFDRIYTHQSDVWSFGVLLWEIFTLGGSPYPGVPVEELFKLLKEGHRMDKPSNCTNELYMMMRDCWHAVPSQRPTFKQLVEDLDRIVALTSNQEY
Description: FGF-R1 Construct for Assay: The intracellular kinase domain of human FGF-R1 was expressed using the baculovirus vector expression system starting from the endogenous methionine residue 456 to glutamate 766, according to the residue numbering system of Mohammadi et al., Mol. Cell. Biol., 16, 977-989 (1996). In addition, the construct also has the following 3 amino acid substitutions: L457V, C488A, and C584S.
The spectrophotometric assay was carried out as described above for VEGF-R2, except for the following changes in concentration: FGF-R=50 nM, ATP=2 mM, and poly(E4Y1)=15 mM.

[7] = biological target: T6, FL-CHK1 (Homo sapiens, UniProt O14757); experiment: CHK1 assay; type: biochemical; settings: Table 2; at 5 (head μM)
T6 construct: C-terminally His-tagged full-length human CHK1 (FL-CHK1); 6xHis (C); made in house; host or cells: baculovirus/insect cells
T6 sequence (O14757 1-476): T2 sequence (O14757 1-476)
In short: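 Full-length human CHK1 with C-terminal 6×His tag, made in baculovirus/insect cells, 10 nM, phosphorylating 0.125 mM Syntide-2 with 0.15 mM ATP in 50 mM Tris pH 7.5, 25 mM MgCl2, 400 mM NaCl. PK/LDH-coupled NADH oxidation read at 340 nm. Ki from initial rates over varied compound concentrations.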

[8] = biological target: T7, unphosphorylated VEGF-R2Δ50 (FLVK) (Homo sapiens, UniProt P35968, DEL940-989/E990V); experiment: VEGF-R2 coupled spectrophotometric assay, unphosphorylated enzyme (FLVK); type: biochemical; settings: Table 3; some entries 'Slow binder'
T7 construct: VEGF-R2Δ50 contains residues 806-939 and 990-1171; made in house; host or cells: baculovirus/insect cells
T7 sequence (P35968 with tags, fused parts or gaps DEL940-989/E990V limits assumed): as the sequence (P35968 with tags, fused parts or gaps DEL940-989/E990V limits assumed) above
In short: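 Unphosphorylated VEGF-R2Δ50 (5 to 40 nM) with 20 mM poly(E4Y1), 3 mM ATP, 60 mM MgCl2, 2 mM MnCl2 in 200 mM Hepes pH 7.5. ADP production coupled via PK/LDH to NADH oxidation, read at 340 nm. Ki from activity at varying compound concentrations.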

[9] = biological target: T8, LCK tyrosine kinase (Homo sapiens, UniProt P06239, C224D/P223M); experiment: LCK spectrophotometric assay; type: biochemical; settings: Table 3, read-out: LCK (% inh @ 1 uM)
T8 construct: starting from amino acid residue 223 to the end of the protein at residue 509; made in house; host or cells: insect cells
T8 sequence (P06239 223-509 P223M/C224D): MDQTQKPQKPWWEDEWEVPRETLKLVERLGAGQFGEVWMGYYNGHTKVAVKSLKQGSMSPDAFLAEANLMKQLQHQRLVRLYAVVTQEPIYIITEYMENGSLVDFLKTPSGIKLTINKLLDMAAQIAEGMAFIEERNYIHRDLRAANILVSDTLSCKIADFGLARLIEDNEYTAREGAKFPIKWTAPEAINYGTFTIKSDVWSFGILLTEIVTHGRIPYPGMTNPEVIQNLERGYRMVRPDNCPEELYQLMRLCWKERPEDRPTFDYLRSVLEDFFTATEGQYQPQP

[10] = test system: human umbilical vein endothelial cells (HUVEC); experiment: HUVEC proliferation assay; type: cell-based; settings: Homo sapiens, HUVEC, Table 3
In short: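 Exponentially growing HUVEC were serum-starved 24 h (F12K + 1% FBS), pre-treated 1 h with compound (0.1% DMSO final), then stimulated with 6 ng/ml VEGF. Proliferation was read 72 h later by MTT reduction (A595). IC50 came from seven 0.5-log concentrations in triplicate; screens gave % inhibition relative to VEGF-only and starved wells.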

With `Nc1nc(Nc2ccc(S(N)(=O)=O)cc2)sc1-c1nc(-c2ccccc2)cs1` [A(1), 4-(4′-Amino-4-phenyl-[2,5′]bithiazolyl-2′-ylamino)-benzenesulfonamide] the melting point was 233 to 235 °C (dec.), the Ki ([1]; Table 2) was 1400 nM and the “% inhibition @ 20 μM” value [2] was 49.8%. It also gave an inhibition at 20 µM [2] of 36.6% and a Ki [3] of 4.6 µM.

With `COc1ccc(-c2csc(-c3sc(Nc4ccc(S(N)(=O)=O)cc4)nc3N)n2)cc1` [A(2), 4-[4′-Amino-4-(4-methoxy-phenyl)-[2,5′]bithiazolyl-2′-ylamino]-benzenesulfonamide] the melting point was 195 to 198 °C, the Ki ([1]; Table 2) was 2900 nM and the Ki [4] was 1800 nM. The “% inhibition @ 20 μM” value [2] was 2.6% and 7.6% and the Ki [3] was 7.3 µM.

For `Cc1sc(-c2sc(Nc3ccc(S(N)(=O)=O)cc3)nc2N)nc1-c1ccc(F)cc1` [A(14), 4-[4′-Amino-4-(4-fluoro-phenyl)-5-methyl-[2,5′]bithiazolyl-2′-ylamino]-benzenesulfonamide], the melting point was 145 to 148 °C (dec.), the Ki ([1]; Table 2) was 1900 nM and the Ki [4] was 3100 nM. For the same molecule, the Ki [3] was 7 µM.

With `Nc1nc(Nc2ccc(S(N)(=O)=O)cc2)sc1-c1nc(-c2cccc(O)c2)cs1` [A(16), 4-[4′-Amino-4-(3-hydroxy-phenyl)-[2,5′]bithiazolyl-2′-ylamino]-benzenesulfonamide] the melting point was 205 to 209 °C (dec.), the Ki ([1]; Table 2) was 22 nM and the Ki [4] was 220 nM. The inhibition at 20 µM [2] was 35.4% and the Ki [3] was 0.98 µM.

`COc1cc(O)cc(-c2csc(-c3sc(Nc4cc(OC)c(OC)c(OC)c4)nc3N)n2)c1` [A(19), 3-[4′-Amino-2′-(3,4,5-trimethoxy-phenylamino)-[2,5′]bithiazolyl-4-yl]-5-methoxyphenol] showed a melting point of 208 to 210 °C, an inhibition at 20 µM [2] of 78.5% and a Ki [5] of 4 nM. The Ki ([6]; Table 2) was 390 nM.

With `COc1cc(Nc2nc(N)c(-c3nc(-c4ccc(Cl)c(O)c4)cs3)s2)cc(OC)c1OC` [A(22), 5-[4′-Amino-2′-(3,4,5-trimethoxy-phenylamino)-[2,5′]bithiazolyl-4-yl]-2-chloro-phenol] the “CHK-1 % inhibition @ 5” value [7] was 54% @, the melting point was 235 to 238 °C and the inhibition at 20 µM [2] was 7.5%. For the same molecule, the Ki [5] was 21 nM.

For `Nc1nc(Nc2ccc(S(N)(=O)=O)cc2)sc1-c1nc(-c2cc(-c3ccc(Cl)cc3Cl)co2)cs1` [A(28), 4-{4′-Amino-4-[4-(2,4-dichloro-phenyl)-furan-2-yl]-[2,5′]bithiazolyl-2′-ylamino}-benzenesulfonamide], the melting point was 225 to 230 °C (dec.), the Ki ([1]; Table 2) was 131000 nM and the Ki [4] was 13000 nM. For the same molecule, the “% inhibition @ 20 μM” value [2] was 9.3% and 0.4% and the Ki [3] was 24 µM.

With `Nc1nc(Nc2ccc(S(N)(=O)=O)cc2)sc1-c1nc(/C=C/c2ccccc2)cs1` [A(63), 4-(4′-Amino-4-styryl-[2,5′]bithiazolyl-2′-ylamino)-benzenesulfonamide] the melting point was 140 to 143 °C (dec.), the Ki [4] was 2000 nM and the “% inhibition @ 20 μM” value [2] was 3.8% and 5.4% and 9.8%. It also gave a Ki [3] of 20 µM.

Work on `CCn1nc(C)cc1C(=O)Nc1ccc(C)c(-c2noc(-c3sc(Nc4cccc(CN5CCCC5)c4)nc3N)n2)c1` [B(9)] yielded a Ki [8] of 0.36 nM, an inhibition at 1 µM [9] of 91% and an inhibition at 1 µM [6] of 78%.

`COc1cccc(C(=O)Nc2ccc(C)c(-c3noc(-c4sc(Nc5ccccc5)nc4N)n3)c2)c1` [B(35)] gave a Ki [8] of 0.26 nM, an inhibition at 1 µM [9] of 34% and an inhibition at 1 µM [6] of 39%.

`COc1cccc(C(=O)Nc2ccc(C)c(-c3noc(-c4sc(Nc5ccc(N6CCOCC6)nc5)nc4N)n3)c2)c1` [B(36), 3-[3-[(3-methoxybenzoyl)amino]-6-methyl-phenyl]-5-[2-[3-amino-6-(4-morpholinyl)-pyridinyl]-4-amino-5-thiazolyl]-1,2,4-oxadiazole] gave a Ki [8] of 0.56 nM, an inhibition at 1 µM [9] of 72% and an inhibition at 1 µM [6] of 23%.

For `COc1cc(Nc2nc(N)c(-c3nc(-c4cccc(N)c4)cs3)s2)cc(OC)c1OC` [C(1)], the melting point was 205 to 210 °C (dec.) and the Ki ([1]; Table 1) was 300 nM.

`COc1cccc(C(=O)Nc2cc(-c3noc(-c4sc(NC(=O)NCCCN5CCCC5=O)nc4N)n3)c(F)cc2F)c1` [O(2)] showed a Ki [8] of 0.33 nM, an inhibition at 1 µM [9] of 7% and an inhibition at 1 µM [6] of 28%.

Molecule `COCC(C)NC(=O)Nc1nc(N)c(-c2nc(-c3cc(NC(=O)c4cccc(OC)c4)c(F)cc3F)cs2)s1` (centres unmarked) [O(14), N-(5-{4′-Amino-2′-[3-(2-methoxy-1-methyl-ethyl)-ureido]-[2,5′]bithiazolyl-4-yl}-2,4-difluoro-phenyl)-3-methoxy-benzamide] has an inhibition at 1 µM [9] of 0%, an IC50 [10] of 16 nM and an inhibition at 1 µM [6] of 10%.
